Entries after “also recorded” stand apart in the source; their conditions may differ.
Assays:
D2 receptors = target: T1, D2 receptors (Mus musculus, UniProt P61168); test: Ex vivo slice voltammetry: DA release after light activation of ChIs, 1p vs 3p Estim, ChAT-Cre:Ai32 slices, D2 antagonism; type: cell-based; conditions: DLS, L-741,626 1 μM
T1 construct: striatal slices from ChAT-Cre: Ai32 mice; from tissue; host or cells: acute striatal slices (DLS) of ChAT-Cre:Ai32 mice
Description: (§1) Stimulations were timed to avoid FCV scans.

nAChRs [1] = test: Anesthetised in vivo voltammetry in DLS; set-up: species or system mouse; conditions: urethane-anesthetised wild-type mice, mecamylamine 2 mg/kg i.p. per FIG. 4 legend
Method: Wild type mice were anesthetised with urethane (1.4-1.9 g/kg, i.p.; Biolab), supplemented with additional urethane (0.2 g/kg) every 1-2 hr as required. All wounds and pressure points were infiltrated with bupivacaine (0.5%). Upon reaching surgical anaesthesia, the head was fixed in a stereotaxic frame (Kopf, USA). Core temperature was maintained at 35-36° C. using a homeothermic blanket and monitored via a rectal probe (TR-100, Fine Science Tools). A round piece of skull overlying the left hemisphere was removed to target the DLS (AP+1.0 mm, ML 1.6 mm, DV 2.2 mm to Bregma). A stimulating and recording array consisting of a carbon-fiber microelectrode and a bipolar stimulating electrode (MS303/3-A/SPC, P1 Technology) was positioned in the DLS. The Ag/AgCl reference electrode was implanted in another part of the forebrain. […] The location of the tip of FCV electrode was confirmed histologically.
For striatal electrical stimulation, 0.65 mA current (200 μs) was delivered through a bipolar stimulating electrode (0.005 inch, MS303/3-A/SPC, P1 Technologies). The stimulating electrode tips were separated by ˜500 μm and were glued to the FCV recording electrode to fix the tip of the FCV electrode between the two stimulating poles. […]

nAChRs [2] = test: Conditioned place preference testing after bilateral dorsal striatal infusion; type: in vivo, mouse; conditions: freely moving mice, 10 μg/side bilateral dorsal striatum, two days of conditioning
Description: Cannulae Placements: Male C57BL/6N mice (42-50 days) were anesthetised with isoflurane (5% induction; 1.5-2% maintenance) and placed on a stereotaxic frame for surgery. Bilateral injection needles (O.D. 0.21 mm, I.D. 0.11 mm, RWD, China) with the guide cannula (O.D. 0.41 mm, I.D. 0.25 mm, RWD, China) were implanted to the dorsal striatum either vertically or at a small angle from the vertical, with the tip of each cannula aimed at coordinates: AP+1.0 mm; ML+/−1.6 mm to bregma; DV-2.4 mm (from dura). Mice recovered for three days after surgery.
Conditioned Place Preference Testing: In CPP experiments, mice were placed in a 40 cm×40 cm transparent plexiglass arena which was divided into two equal chambers separated by doorway. The chambers were decorated with either horizontal or vertical stripes. The movement of animals was recorded and analysed with Smart V3.0 tracking software (Panlab, Spain).
On day 1, mice were allowed to freely shuttle between two chambers to assess place preference at baseline, expressed as % time spent in right chamber. […] On day 4, the post-conditioning chamber preference was calculated as the % of time spent in the right mecamylamine-associated chamber compared to on pre-conditioning day 1. […]

nAChRs [3] = test: 6-OHDA lesioning and cylinder test (single paw reaching), mouse model of PD; type: in vivo; conditions: unilateral 6-OHDA lesioned mice, 10 μg into lesioned striatum, 10 min after injection
Method: 6-OHDA Lesioning and Reaching Task: On the lesioning day, 6-hydroxydopamine was injected into the right dorsolateral striatum through the pre-implanted cannula (1 μl of a 0.9% saline solution containing 4 μg/μL 6-OHDA (Sigma-Aldrich) and 0.02% acetic acid) over 5 min. On the testing day, mecamylamine (10 μg/side) was injected via the cannula in a volume of 0.5 μl over 1 min into the lesioned (right) striatum. Animals were sacrificed immediately after behavioural testing. The 6-OHDA-induced loss of dopamine axons was confirmed by the ˜50% decrease of fluorescence intensity of TH staining in slices compared to the contralateral DLS which was measured with ImageJ (1.52p). The anterior commissure used as 0% background fluorescence. Animals were briefly sedated with isoflurane during the injection of 6-OHDA and mecamylamine.
A cylinder test was performed before and 10 min after 6-OHDA injection to confirm an acute effect of 6-OHDA. After one day of […], the test was performed again before and 10 min after mecamylamine injection. No habituation of the mice to the cylinder was conducted. During the test, mice were individually placed into a glass cylinder (diameter 19 cm, height 25 cm). […] Only wall touches with a single paw, ipsilateral or contralateral forelimb, were counted in the analysis. Data are contralateral touches expressed as a percentage of total number of single-paw touches. […]

nAChRs [4] = test: Calcium imaging of GCaMP6f in DA axons in DLS, ex vivo slices of DAT-Cre:Ai95D mice; type: cell-based, mouse; conditions: DHβE 1 μM
Method: As in a previous study^21, an Olympus BX51WI microscope equipped with a OptoLED Lite system (CAIRN Research), Prime Scientific CMOS (sCMOS) Camera (Teledyne Photometrics), and a ×40/0.8 NA water-objective (Olympus UK) was used for wide-field fluorescence imaging of GCaMP6f in dopaminergic axons in DLS in ex vivo slices in response to single and trains (4 pulses, 100 Hz) of electrical stimulus pulses. Images were acquired at 16.6 Hz frame rate every 2.5 min using Micro-Manager 1.4, with stimulation and recording synchronised using custom-written procedures in Igor Pro 6 (WaveMetrics) and an ITC-18 A/D board (Instrutech). Image files were analysed with Matlab R2019b and Fiji 1.5. The inventors extracted fluorescence intensity from the region of interest (ROI) and from an equal background area where there was no GCaMP6f expression (on the stimulating electrode). After background subtraction, the Ca^2+ transients were bleach-corrected by fitting an exponential curve function through both the baseline (2 s prior to stimulation) and the last 1 s in a 7.2 s recording window. The order of single and train stimulations was alternated and equally distributed and data were collected in duplicate before and after a change in extracellular experimental condition. Data are expressed as ΔF/F where F is the fitted curve. […]

nAChRs [5] = test: Ex vivo slice voltammetry (FCV): [DA]o evoked by light pulse after prior electrical stimulus, striatal slices from DAT-Cre mice; type: cell-based, mouse; conditions: DHβE 1 μM
Description: as §1
The Inventors also explored whether prior ChI activation limits subsequent DA release when driven by targeted optogenetic activation of DA axons (DADA). The Inventors used an electrical stimulus to initially drive DA release (DADA+DAChI) and then assessed DADA driven by a subsequent light activation of ChR2-expressing DA axons in ex vivo striatal slices from DAT-Cre mice (FIG. 2a,b). […] For inter-stimulus intervals <100 ms (DLS) or <50 ms (NAcc), this depression was relieved when a nAChR antagonist was present (DHβE, 1 μM).

muscarinic receptors = conditions: DLS, atropine 2 μM
Method: For fast-scan cyclic voltammetry (FCV) in acute coronal slices, animals were anaesthetised with isoflurane. Brains were quickly removed into ice-cold, high Mg^2+ cutting solution containing in mM: 85 NaCl, 25 NaHCO3, 2.5 KCl, 1.25 NaH2PO4, 0.5 CaCl2, 7 MgCl2, 10 glucose, 65 sucrose. Brains were then blocked, and 300 μm coronal slices were cut on a vibratome (Leica VT1200S) between +1.5 to +0.5 mm from bregma containing caudate-putamen and nucleus accumbens. Slices recovered at 32° C. for 30-40 min after dissection and were subsequently kept at room temperature. Slices were maintained and recorded in artificial cerebrospinal fluid (aCSF) containing in mM: 130 NaCl, 25 NaHCO3, 2.5 KCl, 1.25 NaH2PO4, 2.5 CaCl2), 2 MgCl2, 10 glucose. The aCSF was saturated with 95% O2/5% CO2; recordings were made at 32-33° C. Extracellular DA concentration ([DA]o) was measured using FCV with 7 μm-diameter carbon fiber microelectrodes (CFMs; tip length 50-100 μm) and a Millar voltammeter (Julian Millar, Barts and the London School of Medicine and Dentistry) as previously^55. […]
The Inventors tested whether the DA release dynamics at the timepoints of ChI rebound activity are consistent with nAChR desensitisation. […] As a potential readout of the timecourse of nAChR desensitisation, the Inventors explored how the difference in [DA]o evoked by triplet versus single pulses (100 Hz) varied over time. […]

T1 sequence (P61168 whole entry): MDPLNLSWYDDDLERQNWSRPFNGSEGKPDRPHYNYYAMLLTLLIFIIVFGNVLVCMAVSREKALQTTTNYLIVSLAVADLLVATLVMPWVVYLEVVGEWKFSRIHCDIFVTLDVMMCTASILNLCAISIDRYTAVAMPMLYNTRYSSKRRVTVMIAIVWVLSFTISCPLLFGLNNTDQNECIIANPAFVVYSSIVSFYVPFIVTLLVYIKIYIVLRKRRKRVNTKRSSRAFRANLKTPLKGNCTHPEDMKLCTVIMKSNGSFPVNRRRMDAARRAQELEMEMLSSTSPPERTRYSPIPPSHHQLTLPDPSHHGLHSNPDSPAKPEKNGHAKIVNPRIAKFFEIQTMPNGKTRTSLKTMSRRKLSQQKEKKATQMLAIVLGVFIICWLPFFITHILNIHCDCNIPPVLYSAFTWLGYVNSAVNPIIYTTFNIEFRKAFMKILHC

SMILES: OC1(c2ccc(Cl)cc2)CCN(Cc2c[nH]c3ccccc23)CC1 [L-741,626]
- dynamic DA release response after light activation of ChIs (100-400 ms interval) (D2 receptors): persists

SMILES: CNC1(C)C2CCC(C2)C1(C)C (centres unmarked) [mecamylamine]
- [DA]o evoked by local striatal stimulation with brief electrical pulse trains (nAChRs [1]): significantly increased
- conditioned-place preference for the drug-conditioned chamber (nAChRs [2]): developed a conditioned-place preference
- motor deficits: contralateral forelimb single-paw touching in cylinder test (nAChRs [3]): reduces deficits; also recorded: remediated these motor deficits

SMILES: CO[C@H]1CC=C2CCN3CCC4=C(CC(=O)OC4)[C@]23C1 [DHβE, Dihydro-β-erythroidine]
- axonal GCaMP6f fluorescence for a 4-pulse train (100 Hz) compared to a single pulse (nAChRs [4]): markedly greater
- depression of [DA]o evoked by a subsequent light pulse after an electrical stimulus (nAChRs [5]; DLS, inter-stimulus intervals <100 ms): relieved
- depression of [DA]o evoked by a subsequent light pulse after an electrical stimulus (nAChRs [5]; NAcc, inter-stimulus intervals <50 ms): relieved

SMILES: CN1[C@@H]2CC[C@H]1C[C@@H](OC(=O)C(CO)c1ccccc1)C2 (some centres unmarked) [atropine]
- dynamic DA release response after light activation of ChIs (100-400 ms interval) (muscarinic receptors): persists

Reference: patent US20250221968A1, “TREATMENTS AND METHODS FOR INCREASING DOPAMINE” (Oxford University Innovation Limited, priority 2022, published 2025)
